In BindingDB's records for doi:10.1016/0960-894X(96)00069-8 (1996) one finds kon data, which are given here for one molecule.

In the test the target is Carbonic anhydrase 2 (Homo sapiens, UniProt P00918). Nature of the test: Kinetic constant for binding human carbonic anhydrase II ([…]). To be noted: read-out: kon (M-1-s-1).

As usually defined, the kon is a measure of how fast the partners come together. `NS(=O)(=O)c1ccc(C(=O)NCC(=O)O)cc1` [(4-Sulfamoyl-benzoylamino)-acetic acid]: the kon is 3.61e+07 M⁻¹ s⁻¹.
